Data from patent US9463337B2, “Multifunctional hair color protector” (GALAXY SURFACTANTS LTD., priority 2013, dated 2016).

Assays:
[1] = system: Candida albicans ATCC 10231; experiment: Challenge test on aqueous paste (30%); format: cell-based; conditions: 30% aqueous paste, 25° C.
Description: (§1) Following strains of Gram positive, Gram negative bacteria and yeast and mold were used for the challenge test. Staphylococcus aureus ATCC 653, Escherichia coli ATCC 8739, Pseudomonas aeruginosa ATCC 15442, Candida albicans ATCC 10231, and Aspergillus niger ATCC 16404.
(§2) The test is conducted in the six sterile containers each containing a fix equal amount of test sample. Each container was inoculated with a 1% of standardized Inoculum of the microorganism.
(§3) The initial concentration of the viable microorganism in each test preparation is estimated based on the concentration of microorganism in each of the standardized Inoculum as determined by the plate count method.
(§4) Each container is incubated at 25° C. The aliquot of sample of each container is removed at appropriate intervals of time 0 day, 24 hrs, 48 hrs, and 7 days, 14 days, 21 days and 28 days.

[2] = system: Pseudomonas aeruginosa ATCC 15442; experiment: Challenge test on aqueous paste (30%); format: cell-based; conditions: 30% aqueous paste, 25° C.
Description: as §1, §2, §3, §4

[3] = system: Staphylococcus aureus ATCC 653; experiment: Challenge test on aqueous paste (30%); format: cell-based; conditions: 30% aqueous paste, 25° C.
Description: as §1, §2, §3, §4

[4] = system: Aspergillus niger ATCC 16404; experiment: Challenge test on aqueous paste (30%); format: cell-based; conditions: 30% aqueous paste, 25° C.
Description: as §1, §2, §3, §4

[5] = system: Escherichia coli ATCC 8739; experiment: Challenge test on aqueous paste (30%); format: cell-based; conditions: 30% aqueous paste, 25° C.
Description: as §1, §2, §3, §4

[6] = Zeta potential, Malvern Zetasizer Nano; format: physicochemical; conditions: 1% dispersion
Excerpt: Also the high zeta potential ensures the stability of colloidal dispersions.

[7] = Sensory evaluation of shampooed hair; conditions: shampoo containing 2.0% MCBDC vs base shampoo, panel of 10
Description: Sensory Evaluation of shampooed hair: The subjective evaluation was conducted by the panel of 10. The evaluator scored tresses of the scale of 1 to 2.

UV absorption of MCBDC = format: physicochemical
Excerpt: MCDBC is obtained as practically odorless white paste and has solids content of 30% (Example 2). The product as such has absorbance (E 1%, 1 cm) of 130 at λ max of 306 nm in ethanol.
Its molar extinction coefficient c is 28,000 when measured at same λ max
The white pasty mass that is practically odorless had E1% 1 cm of 130 at λ max 306 nm in EtOH.

[8] = Combing force on Diastron tensile tester after shampoo application; conditions: shampoo containing MCBDC (2%), one application, as compared to placebo shampoo
[9] = Viscosity boosting in SLES/CAPB shampoo formulation; format: physicochemical
Description: A typical placebo shampoo base was prepared with sodium lauryl ether sulphate (12%), cocoamidopropyl betaine (4%), EDTA disodium salt (0.1%), preservative (1%, phenoxy ethanol containing four parabens) and rest deionized water. […] All ingredients were mixed using a Silverson homogenizer thoroughly till a uniform homogeneous mixture was formed.
The base shampoo based on sodium lauryl ether sulphate (2EO) and cocoamidopropyl betaine was prepared as described in Example 4.

[10] = Hair color protection (anti-fade) through rinse-off conditioner, Hunter L* a* b*; conditions: rinse-off conditioner with MCBDC vs placebo, ten wash/UV cycles, five hours total UV exposure
Description: They were dyed using L'Oreal's Burgundy color as per the protocol described by the dye manufacturer.
Hair coloring (hair dyeing) process is performed as recommended by the marketed product. The color and the developer were mixed in ratio of 1:1 and shampooed hair tresses were treated with the same. The color and developer mixture was applied uniformly to the hair tresses and covered with the aluminum foil for twenty minutes. After this the hair tresses were washed with warm water. […] The ‘Placebo’ and ‘Treated’ hair tresses were exposed to UV radiation, total exposure of five hours through total to washing cycles comprising, shampooing, conditioning, rinsing and UV exposure of 30 mins at time using the equipment described in Example 5. The fading of color of the sets of hair tresses, Control, Placebo and Treated was measured on the Hunter instrument, Labscan XE spectrophotometer. The total color loss (ΔE) is assessed by the change in L* a* b* scale using the equation ΔE=[(ΔL)^2+(Δa)^2+(Δb)^2]^1/2.

[11] = Hair protection against UV induced damage through rinse-off conditioner (combing force); conditions: rinse-off conditioner with 2% MCBDC vs placebo conditioner
Description: Double bleached European hair were shampooed with the placebo shampoo of Example 4 and conditioned according to the following protocol. The details of UV chamber and exposure conditions are given below.
Placebo shampoo of Example 4 was applied for 1 minute to European hair and rinsed the tresses with water for one minute 25° C. with controlled finger movements. This was followed by conditioner application for one minute application time, one minute contact time and one and half minute for rinsing off with warm water (40° C.).
Treated hair tresses were exposed to UV radiation with the help of UV lamp for 48 hours. UV exposed hair tresses were then subjected to combing force evaluation on Diastron tensile tester.
Two tresses per treatment were used. The treated tresses were irradiated with UV chamber which is equipped with two tubes emitting UV light in short UV (254 nm) and long UV 315-400 nm) regions. Sankyo Denki G8TS tube with UV output of 2.5 W was used as short UV light source while Sankyo Denki F8T5BLB backlight—blue tube with UV output of 1.4 W was used as long UV light source. Washing and UV exposure was given in the following sequence for 50 h. UV exposed tresses were washed with isopropanol to remove the quaternary followed by combing force measurement on Diastron Tensile Tester (MTT 175).

[12] = system: P. aeruginosa, E. coli, S. aureus, Candida albicans and A. niger; experiment: CTFA challenge test, overall outcome; format: cell-based; conditions: 30% aqueous paste
Excerpt: It was challenge tested with both Gram negative, Gram positive bacteria and yeast and mold by the standard challenge test protocol recommended by CTFA. The test organisms used were P. aeruginosa, E. coli, S. aureus, Candida albicans and A. niger.
as §1, §2, §3, §4

[13] = Surface tension of water (surface activity); format: physicochemical
[14] = Substantivity (deposition) on hair tresses; conditions: 0.5% aqueous solution/dispersion on hair tresses

p-methoxy cinnamidopropyl behenyl dimethyl ammonium chloride [MCBDC]
TVC C. albicans ([1]; 0 hr): 0.6 × 10^3 cfu/gm
TVC C. albicans ([1]; 24 hr): <10 cfu/gm
TVC C. albicans ([1]; 48 hr): <10 cfu/gm
TVC C. albicans ([1]; 7 days): <10 cfu/gm
TVC C. albicans ([1]; 14 days): <10 cfu/gm
TVC C. albicans ([1]; 21 days): <10 cfu/gm
TVC C. albicans ([1]; 28 days): <10 cfu/gm
TVC Ps. Aeruginosa ([2]; 0 hr): 0.43 × 10^5 cfu/gm
TVC Ps. Aeruginosa ([2]; 24 hr): 4.16 × 10^4 cfu/gm
TVC Ps. Aeruginosa ([2]; 48 hr): 4.16 × 10^4 cfu/gm
TVC Ps. Aeruginosa ([2]; 7 days): <10 cfu/gm
TVC Ps. Aeruginosa ([2]; 14 days): <10 cfu/gm
TVC Ps. Aeruginosa ([2]; 21 days): <10 cfu/gm
TVC Ps. Aeruginosa ([2]; 28 days): <10 cfu/gm
TVC S. aureus ([3]; 0 hr): 3 × 10^6 cfu/gm
TVC S. aureus ([3]; 24 hr): <10 cfu/gm
TVC S. aureus ([3]; 48 hr): <10 cfu/gm
TVC S. aureus ([3]; 7 days): <10 cfu/gm
TVC S. aureus ([3]; 14 days): <10 cfu/gm
TVC S. aureus ([3]; 21 days): <10 cfu/gm
TVC S. aureus ([3]; 28 days): <10 cfu/gm
TVC Asp. niger ([4]; 0 hr): 0.78 × 10^5 cfu/gm
TVC Asp. niger ([4]; 24 hr): 1.16 × 10^1 cfu/gm
TVC Asp. niger ([4]; 48 hr): 2.03 × 10^2 cfu/gm
TVC Asp. niger ([4]; 7 days): <10 cfu/gm
TVC Asp. niger ([4]; 14 days): <10 cfu/gm
TVC Asp. niger ([4]; 21 days): <10 cfu/gm
TVC Asp. niger ([4]; 28 days): <10 cfu/gm
TVC E. coli ([5]; 0 hr): 0.41 × 10^4 cfu/gm
TVC E. coli ([5]; 24 hr): <10 cfu/gm
TVC E. coli ([5]; 48 hr): <10 cfu/gm
TVC E. coli ([5]; 7 days): <10 cfu/gm
TVC E. coli ([5]; 14 days): <10 cfu/gm
TVC E. coli ([5]; 21 days): <10 cfu/gm
TVC E. coli ([5]; 28 days): <10 cfu/gm
Zeta potential [6]: +47 mV
sensorial evaluation [7]: significant enhancement of sensory attributes
molar extinction coefficient (UV absorption of MCBDC; at λ max 306 nm): 28,000
absorbance (E 1%, 1 cm) (UV absorption of MCBDC; λ max 306 nm in ethanol, product as such, paste with solids content 30%): 130
reduction in combing force, dry combing [8]: 19.40%
reduction in combing force, wet combing [8]: 51.08%
change in viscosity of shampoo formulation ([9]; MCBDC 0.5% to 2.0% in base (3000 cps, salt 0.7%), Brookfield spindle No 4, 12 rpm, 25° C.): linear increase in viscosity
viscosity of shampoo ([9]; shampoo with 2% MCBDC, placebo shampoo 3000 cps): 18,000 cps
total color loss (ΔE) [10]: Lower ΔE
reduction in combing force after UV exposure, dry combing [11]: about 30%
reduction in combing force after UV exposure, wet combing [11]: about 30%
preservation outcome of challenge test [12]: self preserving
Drop in surface tension of water [13]: 35 dynes
surface tension of water ([13]; at 1.0%, 30° C., reduced from 72 Mn/m): 35 Mn/m

COc1cc(O)c(C(=O)c2ccccc2)cc1S(=O)(=O)O [B-4, Benzophenone-4]
amount deposited on hair (substantivity) [14]: 276 μg/g of hair
